From PubChem BioAssay AID1996 come the findings set out here.

Converted amounts (≈) assume the structure as drawn.

The conditions of the data set: buffer; pH 7.4; 200.0 µM.
In the case of `COC(=O)CN1CCN(C(=O)c2ccco2)CC1`, the kinetic solubility was over 37.8 µg/mL. Turning to `O=C(COC(=O)c1ccccc1Cl)NC1CCCCCCC1`, the kinetic solubility was determined as 34.1 µg/mL (≈ 105 µM). The compound `CCc1c(C)nc(N)nc1Cl` returned a kinetic solubility of 24.1 µg/mL (≈ 140 µM).

Turning to `Cc1ccc(CSCc2ccc(C(=O)NC3CCCC3)o2)cc1`, the solubility (kinetic) amounted to 1.9 µg/mL (≈ 5.77 µM). This solubility kinetic is about 13-fold lower than that of the compound before.

On to `Cl.c1cncc(CNC2CCCCC2)c1`, for which the solubility (kinetic) was over 34 µg/mL. `O=C(c1ccc(F)cc1)N1CCC2(CC1)OCCO2` showed a solubility (kinetic) of 39.2 µg/mL (≈ 148 µM). With `COCc1cc(C)nc(Nc2ccccc2OC)c1C#N`, the solubility (kinetic) was 0.3 µg/mL (≈ 1.06 µM). In the case of `CCN(CC)C(=S)SCC(=O)Nc1ncc2c(n1)CC(C)(C)CC2=O` it was 2.1 µg/mL (≈ 5.52 µM); in that of `CCCc1nc2sc3c(c2c(=O)[nH]1)CCCC3`, 1.3 µg/mL (≈ 5.23 µM); in that of `Cc1cnc(CNC(=O)c2ccc3oc(C(C)C)nc3c2)[nH]1`, 38.2 µg/mL (≈ 128 µM). For `OCCC1CN(Cc2cccc(O)c2)CCN1CCc1ccccc1` (stereo not drawn), the solubility (kinetic) was 50.8 µg/mL (≈ 149 µM).

`Cc1cc(=O)c2c([nH]1)c(C)cc1[nH]c(C)c(C)c12` showed a kinetic solubility of over 36 µg/mL.

`Cc1ccc(NC(=O)N2CCCc3ccccc32)cc1C` showed a solubility (kinetic) of 29 µg/mL (≈ 103 µM). Compound `O=C1NC2(CCCCCC2)C(=O)N1Cc1c(F)cccc1Cl` showed a kinetic solubility of 9.6 µg/mL (≈ 29.6 µM). Consider `Cc1cccc(C)c1OCc1cc(C(=O)NCC2CC2)no1`, for which the kinetic solubility turned out to be 4.6 µg/mL (≈ 15.3 µM). Compound `O=C(O)c1ccccc1NCc1cccnc1` came in with a solubility (kinetic) of over 34.2 µg/mL. For `Cl.c1csc(CN2CCNCC2)c1`, the kinetic solubility is over 38.3 µg/mL. The compound `COC(=O)COc1c(Cl)cc(Cl)c2ccc(C)nc12` registered a kinetic solubility of 6.7 µg/mL (≈ 22.3 µM). Regarding `CC1CN(C(=O)CCS(=O)(=O)c2ccccc2)CC(C)O1` (stereo not drawn), the solubility (kinetic) stood at 43.2 µg/mL (≈ 139 µM). The compound `Nc1ccc(Sc2nc3ccccc3[nH]2)cc1` gave a kinetic solubility of over 36.2 µg/mL. For `COc1ccc(S(=O)(=O)NCCCN2CCOCC2)cc1F`, the solubility (kinetic) was over 49.9 µg/mL.

`CCn1ccnc1CNC(=O)c1cc(COc2ccc(F)cc2F)on1` yielded a kinetic solubility of 49.3 µg/mL (≈ 136 µM). In the case of `COC(=O)C1=C(C)NC(=O)NC1c1ccccc1Cl` (stereo not drawn) it was 18.5 µg/mL (≈ 65.9 µM); in that of `Cl.O=S(=O)(NCCN1CCOCC1)c1cccs1`, over 46.9 µg/mL. Turning to `COn1c(-c2ccc(C)cc2)nc2ncccc21`, the solubility (kinetic) is over 35.9 µg/mL.

With `C=C(C)[C@@H]1CC=C(CN2CCN(Cc3ccccc3)CC2)CC1`, the kinetic solubility is 9.9 µg/mL (≈ 31.9 µM). Compound `CC(=O)NC(c1cccc([N+](=O)[O-])c1)c1ccc2cccnc2c1O` (stereo not drawn) displayed a kinetic solubility of 3.5 µg/mL (≈ 10.4 µM).

`C=CCN(c1ccccc1)S(=O)(=O)c1cccc2cccnc12` came in with a kinetic solubility of 34.9 µg/mL (≈ 108 µM).

`COc1cc(CC(=O)N2CCN(S(=O)(=O)c3ccc(C)cc3)CC2)cc(OC)c1OC`: the kinetic solubility is over 67.3 µg/mL. As to `Brc1cccc(CN2CCCCCC2)c1`, the solubility (kinetic) worked out at 15.2 µg/mL (≈ 56.7 µM). On to `O=C(c1ccc(CNS(=O)(=O)c2cccc(Cl)c2)cc1)N1CCCCC1`, for which the solubility (kinetic) stood at 2.6 µg/mL (≈ 6.62 µM). This solubility kinetic lies about 5.8-fold lower than the previous one.

`COc1ccc(S(=O)(=O)NC2CC2)cc1Br` returned a kinetic solubility of over 45.9 µg/mL. Regarding `COCCN1C(=O)NC(=O)/C(=C\c2ccc(F)cc2)C1=O`, the solubility (kinetic) was found to be 33.5 µg/mL (≈ 115 µM). As for `CC1CCCCC1NC(=O)COC(=O)c1cccn1C` (stereo not drawn), the kinetic solubility was over 41.8 µg/mL.

In turn, `COc1ccc(OC)c(CCNC(=O)CCc2cn(C)c3ccccc23)c1` came in with a solubility (kinetic) of 30.6 µg/mL (≈ 83.5 µM). Compound `CCCOC(=O)Cn1cnc2scc(-c3ccc(C)cc3)c2c1=O` registered a solubility (kinetic) of 17.2 µg/mL (≈ 50.2 µM).

`CN1CCN(C(=O)Nc2ccccc2)CC1.O=C(O)C(=O)O` showed a kinetic solubility of over 46.4 µg/mL. Regarding `S=C(Nc1cccnc1)Nc1ccccc1Br`, the kinetic solubility was over 46.2 µg/mL. `C/C(=N/NC(=O)C(C)n1nc(C)c([N+](=O)[O-])c1C)c1ccc(OCC(N)=O)cc1` (stereo not drawn) registered a solubility (kinetic) of over 60.4 µg/mL. The figure for `O=S(=O)(c1ccc2ccccc2c1)N1CCOCC1` is 20.2 µg/mL (≈ 72.8 µM); for `CC(C)(C)Nc1nc(Cl)nc(NC2CCCCC2)n1` it is 0.2 µg/mL (≈ 0.705 µM).

`COc1ccc(N2CCN(CC(=O)NCc3ccc(Cl)cc3)CC2)cc1` showed a kinetic solubility of 2.2 µg/mL (≈ 5.88 µM). This solubility kinetic lies about 11-fold higher than the previous one. `CC(C)=NOc1nc(N(C)C)nc(N2CCOCC2)n1`: the solubility (kinetic) was determined as 41.9 µg/mL (≈ 149 µM). The figure for `COC(=O)c1ccccc1NC(=O)N1CCN(c2ccc(F)cc2)CC1` is 4.4 µg/mL (≈ 12.3 µM); for `O=C(CC1CCCCC1)NCc1ccccc1` it is 30.5 µg/mL (≈ 132 µM). In the case of `O=C(NC1CCSc2ccccc21)c1ccc([N+](=O)[O-])cc1` (stereo not drawn) it was 3.5 µg/mL (≈ 11.1 µM). In the case of `Nc1cccc2cc(-c3ccccc3)oc12` it was 2.4 µg/mL (≈ 11.5 µM). `Cc1c(Cl)cccc1NC(=O)NCCCN1CCCC1=O` returned a solubility (kinetic) of over 46.5 µg/mL. `CN(CC(=O)Nc1ccc(F)cc1)C(=O)c1ccc(OCc2cn3ccccc3n2)cc1` yielded a solubility (kinetic) of 10.4 µg/mL (≈ 24 µM). In the case of `CC(=O)Nc1ccccc1OCC(=O)NCC(F)(F)F` it was 43.2 µg/mL (≈ 149 µM); in that of `Cc1ccc(S(=O)(=O)CCc2ccncc2)cc1`, over 39.2 µg/mL.

`O=[N+]([O-])c1ccccc1S(=O)(=O)Nc1ccc2c(c1)OCCO2` had a kinetic solubility of over 50.4 µg/mL. The figure for `COCCNC(=O)C(=O)NNC(=O)CCc1ccccc1` is over 44 µg/mL.

By kinetic solubility is commonly meant the concentration staying in solution when a stock, usually in DMSO, is diluted into the medium.
